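GI50: concentration for 50% inhibition of growth. The concentration for full growth arrest is given as TGI.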
Columns and labels:
Assay in all cases: DTP human tumour cell line panel, 384-well format
[1] = system: SW-620 colon
[2] = system: KM12 colon
[3] = system: CCRF-CEM leukemia
[4] = system: MCF7 breast
[5] = system: NCI/ADR-RES ovarian
[6] = system: NCI-H23 lung
[7] = system: OVCAR-5 ovarian
[8] = system: A549 NSCLC
[9] = system: UO-31 renal
[10] = system: BT-549 breast
[11] = system: COLO 205 colon
[12] = system: UACC-62 melanoma
[13] = system: OVCAR-8 ovarian
[14] = system: SF-539 CNS
[15] = system: MDA-MB-468 breast
[16] = system: HOP-92 NSCLC
[17] = system: SF-295 CNS
[18] = system: RPMI-8226 leukemia
[19] = system: MALME-3M melanoma
[20] = system: IGROV1 ovarian
[21] = system: TK-10 renal
[22] = system: NCI-H322M lung
[23] = system: HL-60(TB) leukemia
[24] = system: HCT-15 colon
[25] = system: LOX IMVI melanoma
[26] = system: K-562 leukemia
[27] = system: NCI-H460 NSCLC
[28] = system: ACHN renal
[29] = system: SN12C renal
[30] = system: 786-0 renal
[31] = system: HOP-62 NSCLC
[32] = system: DU-145 prostate
[33] = system: PC-3 prostate
[34] = system: MOLT-4 leukemia
[35] = system: U251 glioblastoma
[36] = system: MDA-MB-231 breast
[37] = system: CAKI-1 renal
[38] = system: SK-OV-3 ovarian
[39] = system: HCC-2998 colon
[40] = system: SNB-75 CNS
[41] = system: NCI-H522 lung
[42] = system: SF-268 CNS
[43] = system: M14 melanoma
[44] = system: T-47D breast
[45] = system: SK-MEL-5 melanoma
[46] = system: A498 renal
[47] = system: RXF 393 renal
[48] = system: NCI-H226 lung
[49] = system: SNB-19 CNS
[50] = system: HS 578T breast
[51] = system: OVCAR-4 ovarian
[52] = system: HT29 colon
[53] = system: MDA-MB-435 melanoma
[54] = system: SK-MEL-28 melanoma
[55] = system: SR leukemia
[56] = system: OVCAR-3 ovarian
[57] = system: UACC-257 melanoma
[58] = system: EKVX NSCLC

Cc1cc2c(F)c(Oc3ncnn4cc(OC[C@@H](C)OC(=O)[C@H](C)N)c(C)c34)ccc2[nH]1
GI50 [1]: 4.96 µM | TGI [1]: 17.7 µM | GI50 [2]: 3.17 µM | TGI [2]: 13.8 µM | GI50 [3]: 1.84 µM | TGI [3]: 6.14 µM | GI50 [4]: 3.45 µM | TGI [4]: 16.7 µM | GI50 [5]: 3.52 µM | GI50 [6]: 10.1 µM | TGI [6]: 21.7 µM | GI50 [7]: 8.29 µM | GI50 [8]: 4.99 µM | TGI [8]: 17.7 µM | GI50 [9]: 6.25 µM | GI50 [10]: 3.65 µM | TGI [10]: 15.3 µM | GI50 [11]: 0.847 µM | TGI [11]: 12.7 µM | GI50 [12]: 3.13 µM | TGI [12]: 17.5 µM | GI50 [13]: 4.41 µM | TGI [13]: 17.2 µM | GI50 [14]: 2.25 µM | TGI [14]: 10.9 µM | GI50 [15]: 2.16 µM | TGI [15]: 5.55 µM | GI50 [16]: 4.17 µM | TGI [16]: 17.3 µM | GI50 [17]: 3.24 µM | TGI [17]: 12.8 µM | GI50 [18]: 0.467 µM | TGI [18]: 1.94 µM | GI50 [19]: 2.07 µM | TGI [19]: 12.5 µM | GI50 [20]: 4.71 µM | GI50 [21]: 2.27 µM | GI50 [22]: 7.3 µM | TGI [22]: 19.7 µM | GI50 [23]: 1.04 µM | TGI [23]: 3.2 µM | GI50 [24]: 0.914 µM | TGI [24]: 3.46 µM | GI50 [25]: 1.43 µM | TGI [25]: 3.81 µM | GI50 [26]: 1.04 µM | TGI [26]: 3.18 µM | GI50 [27]: 0.643 µM | TGI [27]: 4.37 µM | GI50 [28]: 2.97 µM | GI50 [29]: 4.53 µM | GI50 [30]: 3.54 µM | GI50 [31]: 6.64 µM | TGI [31]: 20.3 µM | GI50 [32]: 3.74 µM | GI50 [33]: 3.17 µM | GI50 [34]: 0.272 µM | TGI [34]: 0.612 µM | GI50 [35]: 3.67 µM | GI50 [36]: 1.82 µM | TGI [36]: 18.2 µM | GI50 [37]: 3.65 µM | TGI [37]: 16.4 µM | GI50 [38]: 5.13 µM | GI50 [39]: 3.59 µM | GI50 [40]: 4.41 µM | TGI [40]: 17.1 µM | GI50 [41]: 4.57 µM | GI50 [42]: 3.4 µM | TGI [42]: 16.8 µM | GI50 [43]: 4.9 µM | TGI [43]: 17.4 µM | GI50 [44]: 3.34 µM | GI50 [45]: 0.984 µM | GI50 [46]: 5.04 µM | GI50 [47]: 3.75 µM | TGI [47]: 14.2 µM | GI50 [48]: 4.33 µM | TGI [48]: 18 µM | GI50 [49]: 5.13 µM | GI50 [50]: 6.21 µM | TGI [50]: 17.7 µM | GI50 [51]: 7.98 µM | GI50 [52]: 2.77 µM | TGI [52]: 12 µM | GI50 [53]: 7.77 µM | GI50 [54]: 3.29 µM | TGI [54]: 17.5 µM | GI50 [55]: 0.0548 µM | TGI [55]: 0.241 µM | GI50 [56]: 6.03 µM

CNC(=O)c1cccc(-c2ccc3c(N4CCOC[C@@H]4C)nc(N4CCOC[C@@H]4C)nc3n2)c1
GI50 [1]: 0.635 µM | GI50 [2]: 0.156 µM | GI50 [3]: 0.197 µM | GI50 [4]: 0.0597 µM | GI50 [57]: 0.218 µM | TGI [57]: 0.958 µM | GI50 [5]: 0.534 µM | GI50 [6]: 0.314 µM | GI50 [7]: 0.139 µM | GI50 [8]: 0.152 µM | GI50 [9]: 0.505 µM | TGI [9]: 7.86 µM | GI50 [10]: 0.213 µM | TGI [10]: 1.36 µM | GI50 [11]: 0.154 µM | GI50 [58]: 0.161 µM | TGI [58]: 1.87 µM | GI50 [12]: 0.152 µM | TGI [12]: 0.727 µM | GI50 [13]: 0.37 µM | GI50 [14]: 0.305 µM | GI50 [15]: 0.0332 µM | TGI [15]: 0.277 µM | GI50 [16]: 0.0972 µM | TGI [16]: 1.66 µM | GI50 [17]: 0.112 µM | TGI [17]: 0.545 µM | GI50 [18]: 0.0128 µM | TGI [18]: 0.0401 µM | GI50 [19]: 0.019 µM | TGI [19]: 0.161 µM | GI50 [20]: 0.0425 µM | TGI [20]: 0.284 µM | GI50 [21]: 0.26 µM | TGI [21]: 3.83 µM | GI50 [22]: 0.13 µM | GI50 [23]: 1.36 µM | GI50 [24]: 0.187 µM | GI50 [25]: 0.298 µM | TGI [25]: 1.78 µM | GI50 [26]: 0.48 µM | GI50 [27]: 0.0379 µM | GI50 [28]: 0.162 µM | GI50 [29]: 0.142 µM | TGI [29]: 8.26 µM | GI50 [30]: 0.348 µM | GI50 [31]: 0.269 µM | GI50 [32]: 0.341 µM | GI50 [33]: 0.0719 µM | TGI [33]: 8.3 µM | GI50 [34]: 0.0987 µM | TGI [34]: 1.04 µM | GI50 [35]: 0.637 µM | GI50 [36]: 0.207 µM | GI50 [37]: 0.214 µM | TGI [37]: 5.52 µM | GI50 [38]: 0.116 µM | TGI [38]: 1.58 µM | GI50 [39]: 0.662 µM | GI50 [40]: 0.121 µM | GI50 [41]: 0.0686 µM | GI50 [42]: 0.433 µM | GI50 [43]: 0.143 µM | GI50 [44]: 0.0204 µM | TGI [44]: 0.116 µM | GI50 [45]: 0.062 µM | TGI [45]: 0.295 µM | GI50 [46]: 0.0329 µM | TGI [46]: 0.374 µM | GI50 [47]: 0.33 µM | GI50 [48]: 0.182 µM | TGI [48]: 0.857 µM | GI50 [49]: 2.33 µM | GI50 [50]: 0.105 µM | TGI [50]: 0.381 µM | GI50 [51]: 0.111 µM | TGI [51]: 0.595 µM | GI50 [52]: 0.546 µM | GI50 [53]: 0.28 µM | TGI [53]: 1.61 µM | GI50 [54]: 0.131 µM | TGI [54]: 1.17 µM | GI50 [55]: 0.0536 µM | TGI [55]: 0.239 µM | GI50 [56]: 0.257 µM
